Reference: patent US20110040086A1, “Novel Beta-Lactam Antibiotics, Methods for Their Production, and Their Use” (DRITTE PATENTPORTFOLIO BETEILIGUNGSGESELLSCHAFT MB, priority 2007, published 2011)

Tests used:
[1] = test system: Enterococcus faecalis 769; assay: agar diffusion test (Test System II, multi-resistant germs); assay type: cell-based; design: key: r = resistant (no detectable zone of inhibition)
Method: (§1) The test substances are deposited in stepped quantities (10 μg, 50 μg, 100 μg) onto active ingredient carriers (sensi-discs). For this purpose, the test substances are dissolved in methanol or A. dest. according to their solubility. Each inoculated plate is fitted with 3 test sheets.
(§2) Test System II (Effect Against Multi-Resistant Germs)
(§3) For this purpose, bacteria is cultivated on Müller-Hinton-Agar II plates.
(§4) With 1-1.5 ml physiological saline solution, a bacteria suspension of McFarland 0.5 (corresponds to a bacteria density of 150×10^6 germs) is produced. Then, with a sterile glass rod, a small drop of bacteria suspension is placed on the Müller-Hinton-Agar plate and coated in three layers (vertical, horizontal, and transverse). Thereafter, the sensi-discs with the novel semi-synthetic test substances are placed on top. The fitted plates are incubated for 18-20 hours at 37° C. After incubation, the diameters of the zones of inhibition are read as a measure for the antimicrobial activity of the novel semi-synthetic test substances.

[2] = test system: Staphylococcus aureus 315; assay: as above; assay type: cell-based; design: key: r = resistant (no detectable zone of inhibition)
Method: as §1, §2, §3, §4

S. aureus 36881 = assay: as above; assay type: cell-based, Staphylococcus aureus; design: key: r = resistant (no detectable zone of inhibition)
Method: as §1, §2, §3, §4

S. aureus 520 = assay: as above; assay type: cell-based, Staphylococcus aureus; design: key: r = resistant (no detectable zone of inhibition)
Method: as §1, §2, §3, §4

[3] = test system: S. aureus North Germany strain; assay: as above; assay type: cell-based, Staphylococcus aureus; design: key: r = resistant (no detectable zone of inhibition)
Method: as §1, §2, §3, §4

S. aureus 38418 = assay: as above; assay type: cell-based, Staphylococcus aureus
Method: as §1, §2, §3, §4

S. aureus ATCC 6538 = assay: as above; assay type: cell-based, Staphylococcus aureus
Method: as §1, §2, §3, §4

S. epidermidis 847 = assay: as above; assay type: cell-based, Staphylococcus epidermidis; design: key: r = resistant (no detectable zone of inhibition)
Method: as §1, §2, §3, §4

S. epidermidis 125 = assay: as above; assay type: cell-based, Staphylococcus epidermidis
Method: as §1, §2, §3, §4

[4] = test system: Staphylococcus aureus ATCC 6538; assay: mouse infected with Staphylococcus aureus infection model (survival); assay type: in vivo, BALB/c mice; conditions: 2 × 1.0 mg (50 mg/kg) i.p.
Method: Method for Effectiveness In Vivo with the Mouse Infected with Staphylococcus aureus Model
On Day 0, at least 3 BALB/c mice per test substance (Table 8) or controls are pretreated with cyclophosphamide (250 mg/kg) in 250 μl PBS inta peritoneal (i.p.).
On Day 2, the animals again received 100 mg/kg i.p.
On Day 2, a colony of the test germ is transferred from a growing agar plate (Müller-Hinton-Agar, Beckton Dickinson) into a flask with 10 ml CASO broth (CASO-B., Soyabean peptone-Casein peptone broth, SIFIN, 30 g/l) and is cultivated overnight at 37° C. and a shaking frequency of 250 rpm.
On Day 3, the pre-culture (Vk) is diluted 1:50 with CASO-B and further cultivated ca. 2 hours until an extinction in the medium of 0.6 at a wavelength of 550 nm is reached. Then, it is grown 1× with PBS at room temperature and set again to an extinction of 0.6.
At least 3 animals for a test substance or controls are infected with 10 μl/g body weight grown germs of a bacteria suspension with the extinction 0.6 (ca. 10^10-10^12 CFU, Colony forming units) i.p.
After 30 minutes, antibiotic solution is injected into the mice in a volume of 200 μl PBS with 3% DMSO i.p. 6 hours later, the second antibiotic injection is performed at the same concentration. […]

In the case of `CCOC(=O)C1=C(NC(C(=O)NC2C(=O)C3CC(Cl)=C(C(=O)O)NC32)c2ccccc2)C(=O)C=CC1=O` (stereo not shown) [1p, 3-chlorine-7-[2-(2-ethoxycarbonyl-3,6-dioxocyclohexa-1,4-dienylamino)-2-phenyl-acetylamino]-8-oxo-5-azabicyclo[4.2.0]oct-3-ene-4-carboxylic acid], the “Diameter of zone of inhibition” value ([1]; Quantity n 0.019) is reported as “r”, the “Diameter of zone of inhibition” value ([1]; Quantity n 0.094) is reported as “r” and the “Diameter of zone of inhibition” value ([1]; Quantity n 0.19) is reported as “r”. The “Diameter of zone of inhibition” value ([2]; Quantity n 0.019) was “r”, the “Diameter of zone of inhibition” value ([2]; Quantity n 0.094) was “r” and the “Diameter of zone of inhibition” value ([2]; Quantity n 0.19) was 10 mm. For the same molecule, the “Diameter of zone of inhibition” value (S. aureus 36881; Quantity n 0.019) was “r”, the “Diameter of zone of inhibition” value (S. aureus 36881; Quantity n 0.094) was 12 mm and the “Diameter of zone of inhibition” value (S. aureus 36881; Quantity n 0.19) was 20 mm. For the same molecule, the “Diameter of zone of inhibition” value (S. aureus 520; Quantity n [mol] 0.019) was “r”, the “Diameter of zone of inhibition” value (S. aureus 520; Quantity n [mol] 0.094) was “r” and the “Diameter of zone of inhibition” value (S. aureus 520; Quantity n [mol] 0.19) was 8 mm. For the same molecule, the “Diameter of zone of inhibition” value ([3]; Quantity n 0.019) was “r”, the “Diameter of zone of inhibition” value ([3]; Quantity n 0.094) was “r” and the “Diameter of zone of inhibition” value ([3]; Quantity n 0.19) was 12 mm. For the same molecule, the “Diameter of zone of inhibition” value (S. aureus 38418; Quantity n [mol] 0.019) was 18 mm, the “Diameter of zone of inhibition” value (S. aureus 38418; Quantity n [mol] 0.094) was 28 mm and the “Diameter of zone of inhibition” value (S. aureus 38418; Quantity n [mol] 0.19) was greater than 30 mm. For the same molecule, the “Diameter of zone of inhibition” value (S. aureus ATCC 6538; Quantity n 0.019) was 22 mm, the “Diameter of zone of inhibition” value (S. aureus ATCC 6538; Quantity n 0.094) was 30 mm and the “Diameter of zone of inhibition” value (S. aureus ATCC 6538; Quantity n 0.19) was 32 mm. For the same molecule, the “Diameter of zone of inhibition” value (S. epidermidis 847; Quantity n [mol] 0.019) was “r”, the “Diameter of zone of inhibition” value (S. epidermidis 847; Quantity n [mol] 0.094) was 16 mm and the “Diameter of zone of inhibition” value (S. epidermidis 847; Quantity n [mol] 0.19) was 20 mm. For the same molecule, the “Diameter of zone of inhibition” value (S. epidermidis 125; Quantity n 0.019) was 16 mm, the “Diameter of zone of inhibition” value (S. epidermidis 125; Quantity n 0.094) was 26 mm and the “Diameter of zone of inhibition” value (S. epidermidis 125; Quantity n 0.19) was 28 mm. For the same molecule, the Survival/tested mice n/n [4] was 2/3.
